For one test, the target named is hACC2 (Homo sapiens, UniProt O00763). Put plainly: In vitro ACC2 inhibition assay (ADP-Glo), human ACC2. The test is classed as biochemical. As for the experimental part: (§1) An exemplary procedure for the in vitro ACC inhibition assay, which can be used to determine the inhibitory action of compounds of the invention toward either human (hACC2) or fungal (fACC2) ACC2, follows. The ADP-Glo™ Kinase Assay kit from Promega was used. The ADP-Glo™ Kinase Assay is a luminescent ADP detection assay to measure enzymatic activity by quantifying the amount of ADP produced during an enzyme reaction. The assay is performed in two steps; first, after the enzyme reaction, an equal volume of ADP-Glo™ Reagent is added to terminate the reaction and deplete the remaining ATP. Second, the Kinase Detection Reagent is added to simultaneously convert ADP to ATP and allow the newly synthesized ATP to be measured using a luciferase/luciferin reaction. Luminescence can be correlated to ADP concentrations by using an ATP-to-ADP conversion curve. The detailed procedure is as follows. 50 μL of the compound being tested (600 μM in DMSO) was added to a 384-well dilution plate. The compound was diluted 1:3 in succession in DMSO for each row for 11 wells. 0.5 μL ACC2 working solution was added to 384-well white Optiplate assay plate. 0.5 μL diluted compound solution in each column from step 2 was added to assay plate, each row containing 2 replicates. For the last 2 rows, 0.5 μL negative control (DMSO) was added in one row and 0.5 μL positive control (compound I-97) in the other. The plates were incubated at room temperature for 15 minutes. 5 μL substrate working solution was added to each well to initiate reaction. Final ACC2 reaction concentrations consist of: 5 nM ACC2, 20 μM ATP, 20 μM acetyl-CoA, 12 mM NaHCO3, 0.01% Brij35, 2 mM DTT, 5% DMSO, test compound concentrations: 30 μM, 10 μM, 3.33 μM, 1.11 μM, 0.37 μM, 0.123 μM, 0.0411 μM, 0.0137 μM, 0.00457 μM, 0.00152 μM, and 0.00051 μM. Plates were incubated at room temperature for 60 minutes. 10 μL ADP glo reagent was added. Plates were incubated at room temperature for 40 minutes. 20 μL kinase detection reagent was added. Plates were incubated at room temperature for 40 minutes, and then read on a Perkin Elmer EnVision 2104 plate reader for luminescence as Relative Light Units (RLU).
Chain of hACC2 (O00763 whole entry): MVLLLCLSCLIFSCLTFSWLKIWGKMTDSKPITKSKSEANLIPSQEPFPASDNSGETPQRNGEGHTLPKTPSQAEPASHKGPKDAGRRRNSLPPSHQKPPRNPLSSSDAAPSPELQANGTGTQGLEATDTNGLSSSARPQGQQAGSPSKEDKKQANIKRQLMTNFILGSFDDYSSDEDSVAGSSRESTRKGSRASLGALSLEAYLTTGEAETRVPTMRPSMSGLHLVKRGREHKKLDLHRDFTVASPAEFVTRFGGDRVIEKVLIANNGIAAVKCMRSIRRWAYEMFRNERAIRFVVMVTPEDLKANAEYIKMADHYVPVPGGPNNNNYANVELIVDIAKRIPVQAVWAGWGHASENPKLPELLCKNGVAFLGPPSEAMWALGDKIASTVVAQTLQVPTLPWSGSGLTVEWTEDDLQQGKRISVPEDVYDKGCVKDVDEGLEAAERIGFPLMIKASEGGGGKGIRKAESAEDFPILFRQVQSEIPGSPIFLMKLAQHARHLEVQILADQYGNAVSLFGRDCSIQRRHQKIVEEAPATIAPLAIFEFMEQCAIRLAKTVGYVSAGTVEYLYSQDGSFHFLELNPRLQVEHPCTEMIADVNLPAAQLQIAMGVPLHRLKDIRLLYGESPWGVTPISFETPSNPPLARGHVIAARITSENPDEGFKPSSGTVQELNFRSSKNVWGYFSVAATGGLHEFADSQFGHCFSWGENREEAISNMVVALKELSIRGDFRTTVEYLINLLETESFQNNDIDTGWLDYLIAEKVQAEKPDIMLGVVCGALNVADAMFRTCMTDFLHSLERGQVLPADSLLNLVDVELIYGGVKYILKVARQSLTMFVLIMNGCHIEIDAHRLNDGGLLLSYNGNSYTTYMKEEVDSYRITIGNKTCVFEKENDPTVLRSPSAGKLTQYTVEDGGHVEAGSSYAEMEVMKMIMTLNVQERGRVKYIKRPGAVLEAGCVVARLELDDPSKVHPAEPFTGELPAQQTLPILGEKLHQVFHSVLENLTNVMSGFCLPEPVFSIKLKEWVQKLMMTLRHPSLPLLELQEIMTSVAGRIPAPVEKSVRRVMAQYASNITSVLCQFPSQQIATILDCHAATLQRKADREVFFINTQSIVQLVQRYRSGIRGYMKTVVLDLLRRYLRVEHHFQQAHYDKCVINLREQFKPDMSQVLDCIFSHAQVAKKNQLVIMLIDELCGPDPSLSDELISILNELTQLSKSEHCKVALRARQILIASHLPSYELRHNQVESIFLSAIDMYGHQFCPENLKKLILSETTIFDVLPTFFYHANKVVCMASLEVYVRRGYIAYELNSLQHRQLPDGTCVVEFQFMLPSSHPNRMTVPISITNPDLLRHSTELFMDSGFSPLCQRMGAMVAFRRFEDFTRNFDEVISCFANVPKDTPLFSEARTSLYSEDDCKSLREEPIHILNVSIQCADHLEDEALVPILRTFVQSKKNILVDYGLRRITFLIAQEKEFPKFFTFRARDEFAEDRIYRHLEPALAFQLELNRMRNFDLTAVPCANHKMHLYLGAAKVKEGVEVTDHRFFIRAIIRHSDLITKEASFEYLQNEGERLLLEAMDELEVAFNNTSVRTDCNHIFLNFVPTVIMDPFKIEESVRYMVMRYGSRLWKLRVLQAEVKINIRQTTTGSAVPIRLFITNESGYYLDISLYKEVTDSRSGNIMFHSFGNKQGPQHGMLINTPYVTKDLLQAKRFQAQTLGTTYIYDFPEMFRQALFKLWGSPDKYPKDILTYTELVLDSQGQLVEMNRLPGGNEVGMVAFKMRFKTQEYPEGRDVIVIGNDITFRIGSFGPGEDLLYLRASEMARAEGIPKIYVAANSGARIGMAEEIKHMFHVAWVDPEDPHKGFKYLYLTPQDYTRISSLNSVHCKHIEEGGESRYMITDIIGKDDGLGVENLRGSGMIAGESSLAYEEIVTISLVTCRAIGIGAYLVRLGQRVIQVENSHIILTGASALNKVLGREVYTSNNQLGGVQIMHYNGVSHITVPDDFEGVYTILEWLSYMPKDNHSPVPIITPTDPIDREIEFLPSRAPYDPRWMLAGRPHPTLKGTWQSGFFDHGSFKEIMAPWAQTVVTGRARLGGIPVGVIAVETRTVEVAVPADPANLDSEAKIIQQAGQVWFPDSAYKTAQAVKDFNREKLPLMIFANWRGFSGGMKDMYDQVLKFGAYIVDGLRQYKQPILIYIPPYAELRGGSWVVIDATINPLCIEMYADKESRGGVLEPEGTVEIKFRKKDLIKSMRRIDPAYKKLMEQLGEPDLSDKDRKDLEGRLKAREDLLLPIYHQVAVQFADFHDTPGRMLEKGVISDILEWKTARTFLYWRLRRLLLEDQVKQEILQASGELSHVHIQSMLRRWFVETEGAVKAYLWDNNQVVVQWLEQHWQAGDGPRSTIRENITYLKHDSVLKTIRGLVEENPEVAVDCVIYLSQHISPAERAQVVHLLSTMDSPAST
(§2) Data for each concentration, as well as the positive and negative controls, were averaged, and the standard deviation calculated. Percent inhibition was calculated by the formula: 100×(average negative control−compound)/(average negative control−average positive control). The IC50 for each compound was calculated by fitting the data with a non-linear regression equation: Y=Bottom+(Top−Bottom)/(1+10^((Log IC50−X)*HillSlope)), where X is the log of compound concentration and Y is percent inhibition.
A general note: ADP-Glo first removes unused ATP, then detects ADP through luciferase.

Another test has as its target fACC2 (UniProt Q00955). Put plainly: In vitro ACC2 inhibition assay (ADP-Glo), fungal ACC2. Type of test: biochemical. How it is done:
as §1, §2

In a further test the test system is C. krusei ATCC 6258. Nature of the test: Anti-Fungal (Candida) Activity Assay, broth microtiter MIC. Type of test: cell-based, Candida krusei. The following applies: Pichia kudriavzevii, ATCC6258, 48 h, 3 replicates, MIC read at 48 h. How it is done: Compounds of the present invention were evaluated in an Anti-Fungal Activity Assay. An exemplary procedure for the assay, which measures the susceptibility of various Candida species to anti-fungal compounds, follows. Compounds to be tested (including fluconazole and amphotericin B) were dissolved in DMSO to obtain a solution having a concentration of 1 mg/mL. These stock solutions were sterile filtered using a 0.22 um nylon syringe filter, then diluted in sterile water to achieve a final concentration of 128 μg/mL.
All species were grown from frozen stock by directly plating on to freshly prepared Sabouraud Dextrose agar (BD, Difco) and incubated overnight in ambient air at 35° C. for 24 h. A direct suspension was prepared in RPMI 1640+MOPS (Lonza, Biowhittaker) by taking individual colonies from the overnight cultures using sterile swabs soaked in sterile saline. The concentration of the suspension was determined using pre-determined standard curves. These suspensions were then diluted down to 5×10^3 CFU/mL to achieve a final concentration of 2.5×10^3 CFU/mL once added to the microtiter plate as per CLSI guidelines (M27-A3, Vol. 28 No. 14).
Broth microtiter MIC challenge plates were prepared following CLSI guidelines (M27-A3, Vol. 28 No. 14). The original CLSI guidelines focused on reading Candida MICs after 48 h of incubation. As reading after only 24 h offers a clear advantage of patient care, QC limits are being established for all drugs at 24 h. That being said there are no known interpretive breakpoints for amphotericin B at 24 h and the current fluconazole interpretive breakpoints are based on a 48 h reading. The MIC for the test compounds were recorded at 48 h. All MIC determinations were achieved by visually comparing the growth found in the antibiotic challenged wells to that of the growth control.

The text below walks through data of patent publication US11098055B2, “Ester ACC inhibitors and uses thereof” (Gilead Apollo, LLC, priority 2015, dated 2021).

The structures appear in SMILES notation. pIC50: −log10 of the molar value. Converted amounts (≈) assume the structure as drawn. A value given as a limit tells only on which side of the number the result lay.

Usually pIC50 stands for −log10 of the IC50, conventionally taken in molar units. Read a low pIC50 as a large IC50. By MIC is commonly meant the lowest concentration found to suppress growth. Read a high MIC as weaker potency.

Chain of fACC2 (Q00955 whole entry): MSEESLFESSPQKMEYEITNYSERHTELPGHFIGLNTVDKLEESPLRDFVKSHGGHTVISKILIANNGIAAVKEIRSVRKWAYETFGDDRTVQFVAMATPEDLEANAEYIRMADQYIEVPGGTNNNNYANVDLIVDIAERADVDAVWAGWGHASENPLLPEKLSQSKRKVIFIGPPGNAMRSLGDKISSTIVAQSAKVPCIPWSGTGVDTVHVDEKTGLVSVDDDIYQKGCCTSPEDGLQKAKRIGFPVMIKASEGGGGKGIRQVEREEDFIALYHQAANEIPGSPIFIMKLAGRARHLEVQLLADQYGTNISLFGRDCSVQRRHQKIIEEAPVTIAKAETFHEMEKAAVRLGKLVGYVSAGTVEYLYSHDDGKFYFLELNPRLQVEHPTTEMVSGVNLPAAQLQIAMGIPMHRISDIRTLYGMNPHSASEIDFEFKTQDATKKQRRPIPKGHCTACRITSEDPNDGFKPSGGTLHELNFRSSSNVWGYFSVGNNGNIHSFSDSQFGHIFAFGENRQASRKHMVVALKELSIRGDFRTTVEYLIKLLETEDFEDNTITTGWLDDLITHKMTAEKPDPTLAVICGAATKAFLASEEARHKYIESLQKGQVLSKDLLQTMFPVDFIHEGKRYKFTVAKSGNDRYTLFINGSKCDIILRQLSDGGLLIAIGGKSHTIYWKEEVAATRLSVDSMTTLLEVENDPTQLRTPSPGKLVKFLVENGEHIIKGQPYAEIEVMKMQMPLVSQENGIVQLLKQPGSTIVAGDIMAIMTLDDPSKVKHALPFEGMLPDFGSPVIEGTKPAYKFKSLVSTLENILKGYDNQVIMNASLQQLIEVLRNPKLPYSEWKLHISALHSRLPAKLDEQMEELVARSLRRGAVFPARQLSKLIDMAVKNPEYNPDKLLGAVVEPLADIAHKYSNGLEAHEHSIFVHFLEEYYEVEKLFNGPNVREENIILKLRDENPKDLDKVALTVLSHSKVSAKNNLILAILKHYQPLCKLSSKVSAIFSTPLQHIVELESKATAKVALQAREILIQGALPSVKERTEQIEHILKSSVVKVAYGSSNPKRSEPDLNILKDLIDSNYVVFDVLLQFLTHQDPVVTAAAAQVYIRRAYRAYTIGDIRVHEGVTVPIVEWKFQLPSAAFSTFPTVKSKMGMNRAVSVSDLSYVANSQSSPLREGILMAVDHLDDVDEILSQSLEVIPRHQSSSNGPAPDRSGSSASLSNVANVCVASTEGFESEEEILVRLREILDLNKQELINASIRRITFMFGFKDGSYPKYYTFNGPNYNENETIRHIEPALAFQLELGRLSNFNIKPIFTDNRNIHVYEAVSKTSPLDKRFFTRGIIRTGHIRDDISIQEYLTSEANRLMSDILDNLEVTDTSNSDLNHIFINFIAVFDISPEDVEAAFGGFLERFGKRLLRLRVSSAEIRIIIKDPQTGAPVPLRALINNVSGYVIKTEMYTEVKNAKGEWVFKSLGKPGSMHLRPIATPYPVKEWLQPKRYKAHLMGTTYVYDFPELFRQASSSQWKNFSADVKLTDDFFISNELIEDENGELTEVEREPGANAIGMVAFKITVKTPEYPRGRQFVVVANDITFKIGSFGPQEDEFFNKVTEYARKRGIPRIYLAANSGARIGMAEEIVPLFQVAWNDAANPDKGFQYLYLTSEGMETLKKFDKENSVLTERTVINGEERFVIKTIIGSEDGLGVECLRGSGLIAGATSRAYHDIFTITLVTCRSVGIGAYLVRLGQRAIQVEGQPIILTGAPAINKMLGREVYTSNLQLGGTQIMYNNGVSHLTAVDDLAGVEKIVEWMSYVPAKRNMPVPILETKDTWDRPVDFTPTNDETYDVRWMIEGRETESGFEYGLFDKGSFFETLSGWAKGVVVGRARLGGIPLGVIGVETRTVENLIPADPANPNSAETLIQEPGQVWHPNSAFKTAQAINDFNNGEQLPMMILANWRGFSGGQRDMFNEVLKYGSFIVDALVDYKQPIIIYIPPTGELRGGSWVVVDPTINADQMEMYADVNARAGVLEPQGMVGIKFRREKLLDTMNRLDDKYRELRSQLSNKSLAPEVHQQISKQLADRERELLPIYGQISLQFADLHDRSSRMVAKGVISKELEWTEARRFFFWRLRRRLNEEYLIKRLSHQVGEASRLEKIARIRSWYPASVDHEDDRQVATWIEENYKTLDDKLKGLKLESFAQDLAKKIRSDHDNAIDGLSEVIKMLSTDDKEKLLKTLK

As to `CCOC(=O)c1sc2c(c1C)c(=O)n(C(C)(C)C(=O)N1CCCC1)c(=O)n2C[C@H](OCCO)c1cc(F)ccc1OC` [Compound I-12, (R)-ethyl 1-(2-(5-fluoro-2-methoxyphenyl)-2-(2-hydroxy-ethoxy)ethyl)-5-methyl-3-(2-methyl-1-oxo-1-(pyrrolidin-1-yl)propan-2-yl)-2,4-dioxo-1,2,3,4-tetrahydrothieno[2,3-d]pyrimidine-6-carboxylate], the pIC50 against hACC2 (Table 2a) was 8.00 to 8.52; against hACC2 (Table 2b (additional results)), 8.00 to 8.52; at fACC2 (Table 2a), 8.52 to 9.22; at fACC2 (Table 2b (additional results)), 8.52 to 9.52. Besides, the MIC against C. krusei ATCC 6258 (Table 3a) and against C. krusei ATCC 6258 (Table 3b (additional results)) was 2.1 to 4 µg/mL (≈ 3.47 to 6.6 µM) each time.

On to `CCOC(=O)c1sc2c(c1C)c(=O)n(C(C)(C)C(=O)N1CCCC1)c(=O)n2C[C@H](OCCOC)c1cc(F)ccc1OC` [Compound I-13, (R)-ethyl 1-(2-(5-fluoro-2-methoxyphenyl)-2-(2-methoxy-ethoxy)ethyl)-5-methyl-3-(2-methyl-1-oxo-1-(pyrrolidin-1-yl)propan-2-yl)-2,4-dioxo-1,2,3,4-tetrahydrothieno[2,3-d]pyrimidine-6-carboxylate], for which the pIC50 at hACC2 (Table 2a) was 7.40 to 8.00; against fACC2 (Table 2a), 8.52 to 9.22. The minimum inhibitory concentration (MIC) with C. krusei ATCC 6258 (Table 3a) is > 4.1 µg/mL; with C. krusei ATCC 6258 (Table 3b (additional results)), 2.1 to 4 µg/mL (≈ 3.39 to 6.45 µM).

On to `CCOC(=O)c1sc2c(c1C)c(=O)n(C(C)(C)C(N)=O)c(=O)n2C[C@H](OCCC#N)c1cc(F)ccc1OC` [Compound I-14, (R)-ethyl 3-(1-amino-2-methyl-1-oxopropan-2-yl)-1-(2-(2-cyanoethoxy)-2-(5-fluoro-2-methoxyphenyl)ethyl)-5-methyl-2,4-dioxo-1,2,3,4-tetrahydro-thieno[2,3-d]pyrimidine-6-carboxylate], for which the negative-log IC50 (pIC50) against hACC2 (Table 2a) is 8.00 to 8.52; at fACC2 (Table 2a), 8.52 to 9.22; at fACC2 (Table 2b (additional results)), 8.52 to 9.52. In addition, the minimal inhibitory concentration (MIC) is > 4.1 µg/mL with C. krusei ATCC 6258 (Table 3a) and 2.1 to 4 µg/mL (≈ 3.75 to 7.14 µM) against C. krusei ATCC 6258 (Table 3b (additional results)).

For the molecule `CCOC(=O)c1sc2c(c1C)c(=O)n(C(C)(C)C(=O)NC(C)C)c(=O)n2C[C@H](OCCC#N)c1cc(F)ccc1OC` [Compound I-15, (R)-ethyl 1-(2-(2-cyanoethoxy)-2-(5-fluoro-2-methoxy-phenyl)ethyl)-3-(1-(isopropylamino)-2-methyl-1-oxopropan-2-yl)-5-methyl-2,4-dioxo-1,2,3,4-tetrahydrothieno[2,3-d]pyrimidine-6-carboxylate], the pIC50 against hACC2 (Table 2a) was 7.40 to 8.00; at hACC2 (Table 2b (additional results)) it was 8.00 to 8.52; on fACC2 (Table 2a), 8.52 to 9.22; on fACC2 (Table 2b (additional results)) it was 8.52 to 9.52. The minimal inhibitory concentration (MIC) with C. krusei ATCC 6258 (Table 3a) and in the test with C. krusei ATCC 6258 (Table 3b (additional results)) was 0.25 to 1 µg/mL (≈ 0.415 to 1.66 µM) throughout.

Take `CCOC(=O)c1sc2c(c1C)c(=O)n(C(C)(C)C(=O)N1CCCC1)c(=O)n2C[C@H](OCCC#N)c1cc(F)ccc1OC` [Compound I-16, (R)-ethyl 1-(2-(2-cyanoethoxy)-2-(5-fluoro-2-methoxy-phenyl)ethyl)-5-methyl-3-(2-methyl-1-oxo-1-(pyrrolidin-1-yl)propan-2-yl)-2,4-dioxo-1,2,3,4-tetrahydrothieno[2,3-d]pyrimidine-6-carboxylate]: the pIC50 was 8.00 to 8.52 on hACC2 (Table 2a), 8.52 to 9.22 at fACC2 (Table 2a) and 8.52 to 9.52 against fACC2 (Table 2b (additional results)). The figures for the MIC in the test on C. krusei ATCC 6258 (Table 3a) and in the test on C. krusei ATCC 6258 (Table 3b (additional results)) were > 4.1 µg/mL and 2.1 to 4 µg/mL (≈ 3.42 to 6.51 µM), respectively.

As to `CCOC(=O)c1sc2c(c1C)c(=O)n(C(C)(C)C(N)=O)c(=O)n2C[C@H](OCCO)c1cc(F)ccc1OC` [Compound I-17, (R)-ethyl 3-(1-amino-2-methyl-1-oxopropan-2-yl)-1-(2-(5-fluoro-2-methoxyphenyl)-2-(2-hydroxyethoxy)ethyl)-5-methyl-2,4-dioxo-1,2,3,4-tetrahydro-thieno[2,3-d]pyrimidine-6-carboxylate], the pIC50 at hACC2 (Table 2a) is 7.40 to 8.00; at fACC2 (Table 2a), 8.52 to 9.22; on fACC2 (Table 2b (additional results)), 8.52 to 9.52. Moreover, the figures for the MIC against C. krusei ATCC 6258 (Table 3a) and against C. krusei ATCC 6258 (Table 3b (additional results)) were > 4.1 µg/mL and 2.1 to 4 µg/mL (≈ 3.81 to 7.25 µM), respectively.

`CCOC(=O)c1sc2c(c1C)c(=O)n(C(C)(C)C(=O)NC(C)C)c(=O)n2C[C@H](OCCO)c1cc(F)ccc1OC` [Compound I-18, (R)-ethyl 1-(2-(5-fluoro-2-methoxyphenyl)-2-(2-hydroxy-ethoxy)ethyl)-3-(1-(isopropylamino)-2-methyl-1-oxopropan-2-yl)-5-methyl-2,4-dioxo-1,2,3,4-tetrahydrothieno[2,3-d]pyrimidine-6-carboxylate]: the pIC50 against hACC2 (Table 2a) is 7.40 to 8.00; against fACC2 (Table 2a), 8.52 to 9.22. Further, the minimum inhibitory concentration (MIC) in the test on C. krusei ATCC 6258 (Table 3a) and against C. krusei ATCC 6258 (Table 3b (additional results)) was 0.25 to 1 µg/mL (≈ 0.421 to 1.68 µM) each time.

Consider `CCOC(=O)c1sc2c(c1C)c(=O)n([C@@H](C)C(=O)NC(C)C)c(=O)n2C[C@H](OCCC#N)c1cc(F)ccc1OC` [Compound I-20, ethyl 1-((R)-2-(2-cyanoethoxy)-2-(5-fluoro-2-methoxy-phenyl)ethyl)-3-((S)-1-(isopropylamino)-1-oxopropan-2-yl)-5-methyl-2,4-dioxo-1,2,3,4-tetrahydrothieno[2,3-d]pyrimidine-6-carboxylate], for which the pIC50 against hACC2 (Table 2b (additional results)) is 8.00 to 8.52; against fACC2 (Table 2b (additional results)), 8.52 to 9.52. Also, the minimal inhibitory concentration (MIC) in the test with C. krusei ATCC 6258 (Table 3b (additional results)) lay in the range of 1.1 to 2 µg/mL (≈ 1.87 to 3.4 µM).

Turning to `CCOC(=O)c1sc2c(c1C)c(=O)n([C@H](C)C(=O)NC(C)C)c(=O)n2C[C@H](OCCC#N)c1cc(F)ccc1OC` [Compound I-21, ethyl 1-((R)-2-(2-cyanoethoxy)-2-(5-fluoro-2-methoxyphenyl)ethyl)-3-((R)-1-(isopropylamino)-1-oxopropan-2-yl)-5-methyl-2,4-dioxo-1,2,3,4-tetrahydrothieno[2,3-d]pyrimidine-6-carboxylate], the pIC50 at hACC2 (Table 2b (additional results)) and at fACC2 (Table 2b (additional results)) was 8.52 to 9.52 throughout. The molecule also returned a minimal inhibitory concentration (MIC) with C. krusei ATCC 6258 (Table 3b (additional results)) of 2.1 to 4 µg/mL (≈ 3.57 to 6.8 µM).

Regarding `CCOC(=O)c1sc2c(c1C)c(=O)n(C(C)(C)C(=O)N1CCCC1)c(=O)n2C[C@H](O)c1cc(F)ccc1OC` [Compound I-22, (R)-ethyl 1-(2-(5-fluoro-2-methoxyphenyl)-2-hydroxyethyl)-5-methyl-3-(2-methyl-1-oxo-1-(pyrrolidin-1-yl)propan-2-yl)-2,4-dioxo-1,2,3,4-tetrahydrothieno[2,3-d]pyrimidine-6-carboxylate], the pIC50 is 7.40 to 8.00 against hACC2 (Table 2b (additional results)) and 8.52 to 9.52 against fACC2 (Table 2b (additional results)). For the same molecule, in the test with C. krusei ATCC 6258 (Table 3b (additional results)), the minimal inhibitory concentration (MIC) lay in the range of 2.1 to 4 µg/mL (≈ 3.74 to 7.12 µM).

For the molecule `CCOC(=O)c1sc2c(c1C)c(=O)n([C@@H](C)C(=O)N1CCCC1)c(=O)n2C[C@H](OCCC#N)c1cc(F)ccc1OC` [Compound I-23, ethyl 1-((R)-2-(2-cyanoethoxy)-2-(5-fluoro-2-methoxy-phenyl)ethyl)-5-methyl-2,4-dioxo-3-((S)-1-oxo-1-(pyrrolidin-1-yl)propan-2-yl)-1,2,3,4-tetrahydrothieno[2,3-d]pyrimidine-6-carboxylate], the pIC50 at hACC2 (Table 2b (additional results)) and on fACC2 (Table 2b (additional results)) was 8.00 to 8.52 in each case. The MIC in the test with C. krusei ATCC 6258 (Table 3b (additional results)) lay in the range of 0.25 to 1 µg/mL (≈ 0.416 to 1.66 µM).
